ChEMBL document CHEMBL1141296, “Brunneins A-C, beta-carboline alkaloids from Cortinarius brunneus” (J Nat Prod, 2007)

Key:
[1] = biological target: T1, Acetylcholinesterase (Bos taurus) (UniProt P23795); assay: Inhibition of bovine AChE at 100 uM by Ellman's method
T1 sequence (whole entry): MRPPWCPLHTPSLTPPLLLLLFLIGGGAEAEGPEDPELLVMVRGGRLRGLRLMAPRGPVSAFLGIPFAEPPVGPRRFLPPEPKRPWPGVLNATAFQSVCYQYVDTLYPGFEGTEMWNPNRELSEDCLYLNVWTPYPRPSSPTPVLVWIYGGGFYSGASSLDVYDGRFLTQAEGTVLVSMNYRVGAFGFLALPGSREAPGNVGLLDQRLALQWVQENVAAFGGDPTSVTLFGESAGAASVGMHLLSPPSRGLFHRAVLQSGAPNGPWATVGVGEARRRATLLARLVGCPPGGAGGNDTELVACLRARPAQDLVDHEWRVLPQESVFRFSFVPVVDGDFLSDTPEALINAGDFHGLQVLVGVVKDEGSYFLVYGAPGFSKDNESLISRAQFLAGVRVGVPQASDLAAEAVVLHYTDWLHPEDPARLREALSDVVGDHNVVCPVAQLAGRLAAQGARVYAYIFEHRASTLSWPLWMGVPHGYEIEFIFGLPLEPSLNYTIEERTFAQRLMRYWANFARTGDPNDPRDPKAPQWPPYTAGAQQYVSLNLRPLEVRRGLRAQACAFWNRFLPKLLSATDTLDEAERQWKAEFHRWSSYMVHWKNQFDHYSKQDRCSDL

[2] = biological target: Butyrylcholinesterase (Equus caballus) (UniProt Q9N1N9); assay: Inhibition of equine BChE at 100 uM by Ellman's method
PC-3 = assay: Cytotoxicity against human PC3 cells upto 100 uM after 24 hrs by XTT method; format: functional, cell-based

In the case of CC1=N[C@H](C(=O)O)Cc2c1[nH]c1cc(O)ccc21, the inhibition [1] is reported as under 50%, the inhibition [2] is reported as under 50% and the Activity (PC-3) is reported as “Not toxic”.
